Measured values reported in patent publication US11666558B2, “Methods of treating intraocular pressure with activators of Tie-2” (EyePoint Pharmaceuticals, Inc., priority 2015, dated 2023).
Where a name gives a salt, the structure may show the parent alone. Read-outs that look alike come from different tables or passages of the source.

What was measured:
[1] = Plasma concentrations and pharmacokinetic parameters after topical ocular, subcutaneous and intravitreal administration; assay type: in vivo, New Zealand White rabbits; settings: for AUC(0-t): read-out: AUClast (± SE); for concentration at 0.5 hr / concentration at 0.5 h: 0.50 hr
Protocol: To measure the concentration of Compound 1 in plasma and ocular tissues following topical ocular, subcutaneous, and intravitreal administration, New Zealand White rabbits were administered Compound 1, and plasma and ocular samples were collected at pre-determined time points. Compound 1 formulations were prepared fresh on each day of dosing.
New Zealand White rabbits weighing 2.5 to 3.5 kg were used on this study. Rabbits were housed one per cage. Animals were not fasted and only healthy animals with no ocular illness were used. Two rabbits per group were sacrificed at each of four ocular tissue sampling time points for a total of eight rabbits per group.
Animals were anesthetized for ocular (topical) and intravitreal dosing following the 12IA7 IACUC protocol. Each rabbit received a bolus dose of test formulation either via topical ocular administration 3 times daily on Days 1 and 2 (at 0, 6, and 12 hours), and once on Day 3 (at 0 hours) into both eyes; via intravitreal administration into both eyes once on Day 1 (at 0 hours); or via subcutaneous administration 2 times daily on Days 1 and 2 (at 0 and 8 hours) and once daily on Day 3 (at 0 hours). Doses were given within an approximately 1 hour window each day where applicable.
Each blood sample was collected on Day 3 post dose at pre-determined time points from the rabbits via an ear vessel and placed into chilled polypropylene tubes containing sodium heparin as an anticoagulant. Samples were spun by centrifuge at 4° C. and 3,000×g for 5 minutes. Samples were maintained chilled throughout processing. Each plasma sample was placed on dry ice and stored in a freezer at −60° C. to −80° C. pending bioanalysis.
An LC-MS/MS method was developed for the determination of Compound 1 in rabbit aqueous tissues (plasma, aqueous and vitreous humor) and solid ocular tissue samples. A pre-study standard curve was analyzed to determine the specificity, range, and lower limit of quantitation of the method. Plasma and tissue homogenate study samples were extracted and analyzed. All the samples were treated identically to the standards.
One eight-point standard curve was used in each analytical batch. To be accepted, each batch must have had at least five of eight standards with accuracy within ±20% of nominal, except at the lower limit of quantification (LLOQ), where ±25% was acceptable.
Pharmacokinetic parameters were calculated from the time course of the plasma concentration. The maximum plasma concentration (Cmax) and time to the maximum plasma drug concentration (Tmax) were the observed values for each concentration-time profiles. The area under the plasma drug concentration-time curve (AUClast, with last being from time 0 to the last quantifiable point) was calculated using the trapezoidal formula. The mean residence time MRTlast was calculated as a ratio of AUMClast (area under the first movement curve) to AUClast.

[2] = In vitro diffusion across rabbit cornea and sclera in Franz cell; assay type: in vitro ADME; settings: 1.5% of the sodium salt with 5% HPβCD in 50:50 D5W:sterile water
[3] = New Zealand White, rabbit, plasma, other: intravitreal, 1.55 mg/kg, plasma, intravitreal 2.5 mg/eye (~1.55 mg/kg), solution
[4] = New Zealand White, rabbit, plasma, other: intravitreal, 2.5 mg, plasma, intravitreal 2.5 mg/eye (~1.55 mg/kg), solution
[5] = New Zealand White, rabbit, plasma, other: intravitreal, 2.5 mg/eye, intravitreal 2.5 mg/eye (~1.55 mg/kg), solution, read-out: plasma Average
[6] = New Zealand White, rabbit, plasma, other: intravitreal, 2.5 mg/eye, intravitreal 2.5 mg/eye (~1.55 mg/kg), solution, read-out: plasma Conc., individual rabbit
[7] = New Zealand White, rabbit, plasma, sc, 5 mg/kg, subcutaneous 5 mg/kg/dose, solution
[8] = New Zealand White, rabbit, plasma, subcutaneous, 5 mg/kg/dose, subcutaneous 5 mg/kg/dose, solution, read-out: plasma Average
[9] = New Zealand White, rabbit, plasma, subcutaneous, 5 mg/kg/dose, subcutaneous 5 mg/kg/dose, solution, read-out: plasma Conc., individual rabbit
[10] = New Zealand White, rabbit, plasma, topical or ocular, 0.7 mg/kg, topical ocular 1.2 mg/eye (~0.7 mg/kg/dose), solution
[11] = New Zealand White, rabbit, plasma, topical or ocular, 1.2 mg, topical ocular 1.2 mg/eye (~0.7 mg/kg/dose), solution
[12] = New Zealand White, rabbit, plasma, topical, 1.2 mg/eye, topical ocular 1.2 mg/eye (~0.7 mg/kg/dose), read-out: plasma Average
[13] = plasma, intravitreal solution, normalized by 1.55 mg/kg
[14] = plasma, subcutaneous solution, normalized by 5 mg/kg
[15] = subcutaneous administration, sodium salt solution

COC(=O)N[C@@H](Cc1ccccc1)C(=O)N[C@@H](Cc1ccc(NS(=O)(=O)O)cc1)c1csc(-c2cccs2)n1 [Compound 1 sodium salt]
AUC(0-inf) [1, 3]: 956 ng·h/mL
Cmax [1, 3]: 39.8 ng/mL
MRT last [1, 3]: 15.1 h
half-life [1, 3]: 8.08 h
AUC(0-t) [1, 3]: 953 ng·h/mL
Tmax ([1]; New Zealand White, rabbit, plasma, other: intravitreal, 1.55 mg/kg, plasma, intravitreal 2.5 mg/eye (~1.55 mg/kg), solution, read-out: tmax): 3 h
AUC(0-inf) [1, 4]: 956 ng·h/mL
Cmax [1, 4]: 39.8 ± 2.3 ng/mL
MRT last [1, 4]: 15.1 h
half-life [1, 4]: 8.08 h
AUC(0-t) [1, 4]: 953 ± 91.1 ng·h/mL
Tmax ([1]; New Zealand White, rabbit, plasma, other: intravitreal, 2.5 mg, plasma, intravitreal 2.5 mg/eye (~1.55 mg/kg), solution, read-out: tmax): 3 h
concentration at 1 h ([1]; New Zealand White, rabbit, plasma, other: intravitreal, 2.5 mg/eye, intravitreal 2.5 mg/eye (~1.55 mg/kg), solution, 1.0 hr, read-out: plasma Average): 32.3 ng/mL
concentration at 1 h ([1]; New Zealand White, rabbit, plasma, other: intravitreal, 2.5 mg/eye, intravitreal 2.5 mg/eye (~1.55 mg/kg), solution, 1.0 hr, read-out: plasma Conc., individual rabbit): 33.2 ng/mL
concentration at 3 h [1, 5]: 39.8 ng/mL
concentration at 3 h [1, 6]: 37.5 ng/mL
concentration at 6 h ([1]; New Zealand White, rabbit, plasma, other: intravitreal, 2.5 mg/eye, intravitreal 2.5 mg/eye (~1.55 mg/kg), solution, 6.0 hr, read-out: plasma Average): 36.8 ng/mL
concentration at 6 hr ([1]; New Zealand White, rabbit, plasma, other: intravitreal, 2.5 mg/eye, intravitreal 2.5 mg/eye (~1.55 mg/kg), solution, 6.0 hr, read-out: plasma Conc., individual rabbit): 44.3 ng/mL
concentration at 24 hr [1, 5]: 16.9 ng/mL
concentration at 24 hr [1, 6]: 19 ng/mL
concentration at 48 hr [1, 5]: 2.58 ng/mL
concentration at 48 hr [1, 6]: 2.7 ng/mL
concentration at 72 hr [1, 5]: 0.27 ng/mL
concentration at 72 hr [1, 6]: 0.215 ng/mL
AUC(0-t) ([1]; New Zealand White, rabbit, plasma, sc, 5 mg/kg, plasma, subcutaneous 5 mg/kg/dose, solution): 1560 ± 195 ng·h/mL
Tmax ([1]; New Zealand White, rabbit, plasma, sc, 5 mg/kg, plasma, subcutaneous 5 mg/kg/dose, solution, read-out: tmax): 0.25 h
Tmax ([1]; New Zealand White, rabbit, plasma, sc, 5 mg/kg, subcutaneous administration, solution, read-out: Mean plasma Tmax (converted)): 0.25 h
AUC(0-inf) [1, 7]: 1560 ng·h/mL
Cmax [1, 7]: 1520 ± 115 ng/mL
MRT last [1, 7]: 0.87 h
half-life [1, 7]: 0.47 h
concentration at 0.25 hr [1, 8]: 1520 ng/mL
concentration at 0.25 hr [1, 9]: 1640 ng/mL
concentration at 0.5 hr [1, 8]: 1100 ng/mL
concentration at 0.5 hr [1, 9]: 883 ng/mL
concentration at 1 hr ([1]; New Zealand White, rabbit, plasma, subcutaneous, 5 mg/kg/dose, subcutaneous 5 mg/kg/dose, solution, 1.0 hr, read-out: plasma Average): 646 ng/mL
concentration at 1 h ([1]; New Zealand White, rabbit, plasma, subcutaneous, 5 mg/kg/dose, subcutaneous 5 mg/kg/dose, solution, 1.0 hr, read-out: plasma Conc., individual rabbit): 664 ng/mL
concentration at 2 h ([1]; New Zealand White, rabbit, plasma, subcutaneous, 5 mg/kg/dose, subcutaneous 5 mg/kg/dose, solution): 180 ng/mL
concentration at 4 h [1, 8]: 7.76 ng/mL
concentration at 4 h [1, 9]: 7.98 ng/mL
AUC(0-t) ([1]; New Zealand White, rabbit, plasma, topical or ocular, 0.7 mg/kg, plasma, topical ocular 1.2 mg/eye (~0.7 mg/kg/dose), solution): 11.8 ng·h/mL
Tmax ([1]; New Zealand White, rabbit, plasma, topical or ocular, 0.7 mg/kg, plasma, topical ocular 1.2 mg/eye (~0.7 mg/kg/dose), solution, read-out: tmax): 4 h
Cmax [1, 10]: 7.48 ng/mL
MRT last [1, 10]: 2.98 h
AUC(0-t) ([1]; New Zealand White, rabbit, plasma, topical or ocular, 1.2 mg, plasma, topical ocular 1.2 mg/eye (~0.7 mg/kg/dose), solution): 11.8 ± 5.7 ng·h/mL
Tmax ([1]; New Zealand White, rabbit, plasma, topical or ocular, 1.2 mg, plasma, topical ocular 1.2 mg/eye (~0.7 mg/kg/dose), solution, read-out: tmax): 4 h
Cmax [1, 11]: 7.48 ± 5.53 ng/mL
MRT last [1, 11]: 2.98 h
concentration at 0.5 h [1, 12]: 3.03 ng/mL
concentration at 0.5 h ([1]; New Zealand White, rabbit, plasma, topical, 1.2 mg/eye, topical ocular 1.2 mg/eye (~0.7 mg/kg/dose), read-out: plasma Conc., individual rabbit): 3.84 ng/mL
concentration at 1 h ([1]; New Zealand White, rabbit, plasma, topical, 1.2 mg/eye, topical ocular 1.2 mg/eye (~0.7 mg/kg/dose), 1.0 hr, read-out: plasma Average): 1.46 ng/mL
concentration at 1 h ([1]; New Zealand White, rabbit, plasma, topical, 1.2 mg/eye, topical ocular 1.2 mg/eye (~0.7 mg/kg/dose), 1.0 hr, read-out: plasma Conc., individual rabbit): 1.28 ng/mL
concentration at 2 h ([1]; New Zealand White, rabbit, plasma, topical, 1.2 mg/eye, topical ocular 1.2 mg/eye (~0.7 mg/kg/dose)): 1.14 ng/mL
concentration at 4 h [1, 12]: 7.48 ng/mL
Mean plasma Cmax, fold higher than Compound 1 (free acid) suspension ([1]; intravitreal administration, sodium salt solution): approximately 2 fold
Dose normalized AUClast [1, 13]: 615 kg·ng·h/mL/mg
Dose normalized AUC∞ [1, 13]: 617 kg·ng·h/mL/mg
Dose normalized AUClast ([1]; plasma, intravitreal solution, normalized by 1.55 mg/kg, listed as Compound 1 (sodium salt)): 615 ± 58.8 kg·ng·h/mL/mg
Dose normalized AUClast [1, 14]: 311 kg·ng·h/mL/mg
Dose normalized AUC∞ [1, 14]: 312 kg·ng·h/mL/mg
Dose normalized AUClast ([1]; plasma, subcutaneous solution, normalized by 5 mg/kg, listed as Compound 1 (sodium salt)): 311 ± 38.9 kg·ng·h/mL/mg
Dose normalized AUClast ([1]; plasma, topical ocular, normalized by 0.7 mg/kg): 16.8 kg·ng·h/mL/mg
Dose normalized AUClast ([1]; plasma, topical ocular, normalized by 0.7 mg/kg, listed as Compound 1 (sodium salt)): 16.8 ± 8.15 kg·ng·h/mL/mg
Mean plasma AUClast, fold higher than Compound 1 (free acid) suspension [1, 15]: approximately 2 fold
Mean plasma Cmax, fold higher than Compound 1 (free acid) suspension [1, 15]: approximately 3 fold

COC(=O)N[C@@H](Cc1ccccc1)C(=O)N[C@@H](Cc1ccc(NS(=O)(=O)O)cc1)c1csc(-c2cccs2)n1 [Compound 1]
diffusion across rabbit cornea and sclera [2]: substantial diffusion
